Measured values published in patent US12345641B2, “Fluorescence quenching immunoassay” (IDEXX Laboratories, Inc., priority 2020, dated 2025).
No end group written: not given here.

Legend:
[1] = Absorption and emission spectra of fluoresceins and SDMA conjugates (Example 33); assay type: physicochemical; details: PBS buffer
Excerpt: The maximum absorption of fluorescein (Fl) in PBS buffer is at 489 nm and the maximum fluorescence emission is at 515 nm. When the fluorescein molecule is conjugated with an SDMA molecule via a —CH2NH— linker (i.e., to provide SDMA-Fl), its maximum absorption and emission are shifted to 495 nm and 525 nm, respectively. When the fluorescein molecule is substituted by fluorine at the 2′ and 7′ positions (i.e., to provide DFF) there is no any change in the maximum absorption and emission compared to unsubstituted fluorescein. When the fluorescein molecule is substituted by chloride at the 2′ and 7′ positions (i.e., to provide DCF) the maximum absorption and emission are red-shifted to 500 nm and 525 nm, respectively. Also conjugating DFF or DCF to SDMA via a —CH2NH— linker (i.e., to provide SDMA-DFF and SDMA DCF, respectively) results in the maximum absorption and emission being red-shifted. The maximum absorption and emission wavelengths of fluorescein (FL), 2′,7′-difluorofluorescien (DFF), 2′,7′-dichlorofluorescien (DCF), and their conjugates with SDMA via a —CH2NH— linker (i.e., SDMA-Fl (i.e., structure A3), SDMA-DFF, and SDMA-DCF) are listed in the Table provided below. The absorption spectra of DFF, SDMA-DFF, DCF, SDMA-DCF, Fl, and SDMA-FL are depicted in FIG. 25A and the emission spectra of SDMA-DFF, SDMA-DCF, Fl, and SDMA-FL are depicted in FIG. 25B.

anti-T4 antibody = test: Maximum percentage fluorescence quenching of T2-F, T3-F, T4-F by anti-T4 antibody with and without quencher label (Example 27 table); assay type: binding
Description: In another experiment, tracer T2-F, T3-F, or T4-F was dissolved in DMSO to provide a DMSO solution at a tracer concentration of 1 mM. The DMSO solution was then diluted with phosphate buffered saline (“PBS”) to provide a stock solution of each tracer at a concentration of 10 μM. Monoclonal anti-T4-Mab or anti-T4-Mab conjugated to a quencher (Cy3-Ab, IRdyeQC1-Ab, Cy5-Ab, BHQ1-Ab) were serially diluted in PBS to provide solutions having an Anti-T4-Mab or anti-T4-Mab conjugated to quencher at concentration ranging from 0 to 2 μM. In a 96 well black assay plate containing the serially diluted Anti-T4-Mab or anti-T4-Mab conjugated to quencher (95 μL) was added the tracer T2-F, T3-F, or T4-F solution (5 μL), mixed well, and incubated for 30 min and the fluorescence intensities then recorded at an excitation wavelength of 485 nm and an emission wavelength of 520 nm. The results of maximum percentage fluorescence quenching for different tracers and quencher-modified antibodies are provided in the following Table: […]

anti-T4-Mab = test: Fluorescence of T3 tracers and anti-T4-Mab in the presence of T4 (Example 20); assay type: binding; details: PBS, tracer and antibody equimolar
Description: Similar solutions were prepared and the fluorescence measured except that the T3-F was replaced with T3-5-F, T3-E-F and T3-FITC.

[2] = tested on: Monoclonal anti-NT-proBNP antibody (ADX-15 Mab); test: Fluorescence quenching of canine NT-proBNP peptide-Fl/DFF conjugates by anti-NT-proBNP Mab and Ab-BHQ10 (Example 52); assay type: binding; details: for Percentage Fluorescence Quenching, DFF Conjugate, Ab-BHQ10 / Percentage Fluorescence Quenching, DFF Conjugate, Ab: NT-proBNP peptide-difluorofluorescein conjugate; for Percentage Fluorescence Quenching, DFF Conjugate, Ab-BHQ10 / Percentage Fluorescence Quenching, F1 Conjugate, Ab-BHQ10: mAb-BHQ10; for Percentage Fluorescence Quenching, DFF Conjugate, Ab-BHQ10 / Percentage Fluorescence Quenching, DFF Conjugate, Ab / Percentage Fluorescence Quenching, F1 Conjugate, Ab-BHQ10: molar ratio of 1:1; for Percentage Fluorescence Quenching, DFF Conjugate, Ab-BHQ10 / Percentage Fluorescence Quenching, DFF Conjugate, Ab / Percentage Fluorescence Quenching, F1 Conjugate, Ab / Percentage Fluorescence Quenching, F1 Conjugate, Ab-BHQ10: No = No Quenching; for Percentage Fluorescence Quenching, F1 Conjugate, Ab / Percentage Fluorescence Quenching, F1 Conjugate, Ab-BHQ10: NT-proBNP peptide-fluorescein conjugate; for Percentage Fluorescence Quenching, F1 Conjugate, Ab: Ab/Conjugate molar ratio of 1:1; for quenching of peptide-Fl or -DFF conjugates upon addition of antibody or antibody-BHQ10: any molar ratio from 1:1 to 8:1; for fluorescence quenching: ratio of 8:1; for fluorescence quenching reached (up to) by anti-NT-proBNP antibody: unmodified antibody, titration 0 to 800 nM
Description: NT-proBNP peptide-fluorescein (Fl) or -difluorofluorescein (DFF) conjugates were dissolved in DMSO (0.4 mM) and diluted with PBS to provide a stock solution (100 nM). Monoclonal anti-NT-proBNP antibody (ADX-15 Mab, IDEXX Laboratories Inc. of Westbrook, ME) (6.84 mg/ml) was serially diluted in PBS buffer to provide solutions having an antibody concentration ranging from 0 to 800 nM in PBS. In a 96 well black assay plate containing the serially diluted antibody solution (50 μL) was added the P1-Fl or P1-DFF, or other peptide-Fl or Peptide-DFF solution (50 μL), mixed well, incubated for 30 min and the fluorescence intensities recorded (excitation at 485 nm and emission at 520 nm). The results are provided in FIG. 47, FIG. 48, and Table 2.

[3] = tested on: Monoclonal anti-CysB antibody (7C2); test: Fluorescence quenching of canine CysB peptide-Fl/DFF conjugates by anti-CysB Mab or Mab-BHQ10 (Example 51); assay type: binding, mouse
Description: CysB peptide-fluorescein (Fl) or -difluorofluorescein (DFF) conjugates were dissolved in DMSO (0.5 mM) and diluted with Tris Buffer ([…] at pH8.0) to provide a stock solution (100 nM). Monoclonal anti-CysB antibody (7C2, raised against a peptide having the amino acid sequence of SEQ ID NO: 14) (8 mg/ml) was serially diluted in PBS buffer to provide solutions having an Anti-CysB-Mab concentration ranging from 0 to 800 nM in Tris buffer (50 mM at pH 8.0 with 0.5% sarkosyl (sodium lauroyl sarcosinate)). In a 96-well black assay plate containing the serially diluted Anti-CysB-Mab solution (50 μL) was added the peptide-Fl or peptide-DFF solution (50 μL), mixed well, incubated for 30 min and the fluorescence intensities recorded. The results are provided in FIG. 38, 39, 40, and Table 1.

anti-CysB Mab = test: Peptide/full length canine CysB protein dose response in Tris buffer and serum (Example 51); assay type: binding, mouse; details: for fluorescence intensity as a function of CysB peptide concentration: peptide 0 to 3200 nM added to mixture of antibody and P6-Fl or P6-DFF, Tris buffer
Description: A mixture of CysB P6-Fl or P6-DFF in Tris buffer with 0.1% Tween 20 (200 nM, 25 μL) and anti-Cys-Mab in Tris buffer with 0.1% Tween 20 (400 nM, 25 μL) was incubated at room temperature for 30 min in the wells of a 96 well black assay plate. A series of CysB peptides P6, P7, and P14 standard solutions having peptide concentrations ranging from 0 to 3200 nM (50 μL) were then added to the mixtures of the P6-Fl or P6-DFF and anti-CysB Mab in Tris Buffer. The plate was then incubated for 30 min at room temperature and the fluorescence intensities recorded at an excitation of 485 nm and an emission of 520 nm. The results are shown in FIG. 43, FIG. 44, FIG. 45, and FIG. 46.

## O=C1OC2(c3cc(Cl)c(O)cc3Oc3cc(O)c(Cl)cc32)c2ccccc21 [DCF, 2′,7′-dichlorofluorescien]
[1]
  Max Absorption: 500 nm
  Max Emision: 525 nm

## O=C1OC2(c3cc(F)c(O)cc3Oc3cc(O)c(F)cc32)c2ccccc21 [DFF, 2′,7′-difluorofluorescien]
[1]
  Max Absorption: 489 nm
  Max Emision: 515 nm

## O=C(O)c1ccccc1-c1c2ccc(=O)cc-2oc2cc(O)ccc12 [Fl, fluorescein]
[1]
  Max Absorption: 489 nm
  Max Emision: 515 nm
[1]; listed as FI
  Max Absorption: 483 nm

## CNC(=NCCCC(N)C(=O)NCc1c(O)c(Cl)cc2c(-c3ccccc3C(=O)O)c3cc(Cl)c(=O)cc-3oc12)NC (stereo not shown) [SDMA-DCF]
[1]
  Max Absorption: 510 nm
  Max Emision: 535 nm

## O=C(O)c1ccccc1-c1c2ccc(=O)cc-2oc2c(CNC(Cc3cc(I)c(Oc4ccc(O)cc4)c(I)c3)C(=O)O)c(O)ccc12 (stereo not shown) [T2-F]
anti-T4 antibody; anti-T4-Mab conjugated to BHQ1
  Percentage of fluorescence quenching, BHQ1-Ab: 11%
anti-T4 antibody; anti-T4-Mab conjugated to Cy5
  Percentage of fluorescence quenching, Cy5-Ab: 16%
anti-T4 antibody; anti-T4-Mab conjugated to IRdyeQC1
  Percentage of fluorescence quenching, IRdyeQC1-Ab: 8%
anti-T4 antibody; anti-T4-Mab without quencher
  Percentage of fluorescence quenching, Ab: 22%

## O=C(NC(Cc1cc(I)c(Oc2ccc(O)c(I)c2)c(I)c1)C(=O)O)c1ccc(-c2c3ccc(=O)cc-3oc3cc(O)ccc23)c(C(=O)O)c1 (stereo not shown) [T3-5-F, T3-5-Fluorescein]
anti-T4-Mab
  fluorescence quenching by anti-T4-Mab: not quenched

## O=C(O)c1ccccc1-c1c2ccc(=O)cc-2oc2c(CNCCNC(Cc3cc(I)c(Oc4ccc(O)c(I)c4)c(I)c3)C(=O)O)c(O)ccc12 (stereo not shown) [T3-E-F, T3-Ethyl-Fluorescein]
anti-T4-Mab
  fluorescence quenching by anti-T4-Mab: quenched

## O=C(O)c1cc(NC(=S)NC(Cc2cc(I)c(Oc3ccc(O)c(I)c3)c(I)c2)C(=O)O)ccc1-c1c2ccc(=O)cc-2oc2cc(O)ccc12 (stereo not shown) [T3-FITC]
anti-T4-Mab
  fluorescence quenching by anti-T4-Mab: not quenched

## AEQLAL [P2]
[2]
  Percentage Fluorescence Quenching, DFF Conjugate, Ab-BHQ10: No
  Percentage Fluorescence Quenching, DFF Conjugate, Ab: No
  Percentage Fluorescence Quenching, F1 Conjugate, Ab: No
  Percentage Fluorescence Quenching, F1 Conjugate, Ab-BHQ10: No
  quenching of peptide-Fl or -DFF conjugates upon addition of antibody or antibody-BHQ10: no quenching

## EPLHRS [P3]
[2]
  Percentage Fluorescence Quenching, DFF Conjugate, Ab-BHQ10: No
  Percentage Fluorescence Quenching, DFF Conjugate, Ab: No
  Percentage Fluorescence Quenching, F1 Conjugate, Ab: No
  Percentage Fluorescence Quenching, F1 Conjugate, Ab-BHQ10: No
  quenching of peptide-Fl or -DFF conjugates upon addition of antibody or antibody-BHQ10: no quenching

## GHDELAYF [P7, canine CysB peptide]
[3]; CysB peptide conjugated to 5-position of difluorofluorescein, Ab/Conjugate ratio = 2/1
  Percentage Fluorescence Quenching, DFF Conjugate At 5-Position: 5%
[3]; CysB peptide conjugated to 5-position of fluorescein, Ab/Conjugate ratio = 2/1
  Percentage Fluorescence Quenching, F1 Conjugate At 5-Position: 5%
anti-CysB Mab
  fluorescence intensity as a function of CysB peptide concentration: a dose response was observed

## NT-proBNP P6-Fl: NT-proBNP peptide LEPLHRS conjugated to 5-position of fluorescein (also: conjugated to 5-position of fluorescein, peptide site not given here)
[2]
  fluorescence quenching: approximately 10%

## P1-DFF: NT-proBNP peptide AEQLALEPLHRS conjugated to 5-position of DFF (also: conjugated to 5-position of DFF, peptide site not given here)
[2]
  fluorescence quenching reached (up to) by anti-NT-proBNP antibody-BHQ10: approximately 65%
  fluorescence quenching reached (up to) by anti-NT-proBNP antibody: approximately 70%

## P1-Fl: NT-proBNP peptide AEQLALEPLHRS conjugated to 5-position of fluorescein (also: conjugated to 5-position of fluorescein, peptide site not given here)
[2]
  fluorescence quenching reached (up to) by anti-NT-proBNP antibody-BHQ10: 40%
  fluorescence quenching reached (up to) by anti-NT-proBNP antibody: 70%

## P5-Fl: CysB peptide GELAYF conjugated to 5-position of fluorescein (also: conjugated to 5-position of fluorescein, peptide site not given here)
[3]; anti-CysB mAb
  quenching of 4′-position conjugate compared with 5-position conjugate: higher quenching

## P6-DFF: CysB peptide GDELAYF conjugated to 5-position of DFF (also: conjugated to 5-position of DFF, peptide site not given here)
[2]
  fluorescence quenching: approximately 10%
[3]; anti-CysB-Mab, molar ratio of about 4:1
  Maximum quenching: ~45%

## P6-Fl: CysB peptide GDELAYF conjugated to 5-position of fluorescein (also: conjugated to 5-position of fluorescein, peptide site not given here)
[3]
  quenching by anti-CysB Mab-BHQ10 relative to un-modified mAb: slightly higher
[3]; molar ratio of antibody to P6-Fl of about 8:1, unmodified anti-CysB-Mab
  fluorescence quenching: ~30%

## P7-Fl: CysB peptide GHDELAYF conjugated to 5-position of fluorescein (also: conjugated to 5-position of fluorescein, peptide site not given here)
[3]; anti-CysB-Mab
  fluorescence quenching relative to P6-Fl: weaker quenching

## YQTNKAKHDELAYF [P14]
anti-CysB Mab
  fluorescence intensity as a function of CysB peptide concentration: a dose response was observed

B1: CysB full length protein: canine cystatin-B, SEQ ID NO: 1 (protein, listed as Canis familiaris)
chain: MMCGAPSASQPATADTQAIADQVKAQLEERENKKYTTFKAVTFRSQVVAGTPYFIKVQVDDDEFVHLRVFQSLPHENKPLALSSYQTNKAKHDELAYF
anti-CysB Mab; added to mixture of antibody and tracer in the presence of varying concentrations of sarkosyl
  fluorescence intensity as a function of CysB full length protein concentration: a dose response was observed
anti-CysB Mab; antibody or antibody-BHQ10 with P6-Fl or P6-DFF, sarkosyl (1%)
  dose response of CysB full length protein in serum: dose response was also observed
